The text below walks through data of patent US4914107A, “Method for selectively blocking 5-HT2 receptors” (Eli Lilly and Company, priority 1989, dated 1990).

The test system of test [1] is vascular (5HT2) serotonin receptors. The experiment in a line: Duration of inhibition of vascular 5HT2 receptors in pithed rats (serotonin challenge 0.1 mg/kg i.v.). The test is classed as in vivo, rat. To be noted: for inhibition of vascular serotonin receptors: pithed rats; for Increase in mean blood pressure to serotonin: 0.1 mg/kg iv. The procedure: For these studies pithed rats were treated with vehicle or with the acid or the ester at a dose of 0.1 mg/kg, i.v. and challenged with serotonin (0.1 mg/kg i.v.) at various intervals for 2 hrs. after test compound or vehicle administration.

Test [2] has the same test system. The experiment in a line: Inhibition of the pressor response to serotonin in pithed rats after intravenous test compound. It is filed as in vivo, rat. To be noted: for effect on pressor response to serotonin: pithed rats. The protocol: Serotonin receptor antagonism was evaluated in pithed Wistar normotensive rats (Charles River, Inc. Portage, MI; 240-374 g) since responses in the pithed preparation are primarily direct vascular effects. Rats were anesthetized with Metofane® (methoxyflurane), carotid arterial and femoral venous catheters were implanted, and the trachea was cannulated. Rats were pithed and ventilated with room air (Cohen et al., supra, 1983; Cohen et al., supra, 1985). An equilibration period of 15 min. was observed before control measurements and i.v. administration of test compound or vehicle. Increasing intravenous doses of serotonin were injected 15 min. after intravenous administration of test compound or vehicle. […] By intravenous administration, 1-isopropyldihydrolysergic acid was only approximately one-third as potent as the ester in blocking vascular 5HT2 receptors.

Test [3] has as its target T1, 5HT2 receptors (Rattus norvegicus, UniProt P14842).
T1 construct: Ring preparations of external rat jugular veins were used; tissue Harlan Sprague-Dawley, Inc., Cumberland, IN (animals); host or cells: external jugular vein rings of male Wistar rats
The note with it: cited from earlier work.

In test [4] the test system is vascular (5HT2) serotonin receptors. The experiment in a line: Duration of inhibition of vascular 5HT2 receptors in pithed rats (serotonin challenge 0.1 mg/kg i.v.). It is filed as in vivo, rat. To be noted: 0.3 mg/kg iv.
Test [5] has as its target T1, 5HT2 receptors. The experiment in a line: Antagonism of serotonin-induced contractions in the rat jugular vein (in vitro 5HT2 affinity). It is filed as cell-based. The protocol:
Male Wistar rats (150-300 g) (Harlan Sprague-Dawley, Inc., Cumberland, IN) were killed by cervical dislocation. Ring preparations of external rat jugular veins were used as detailed in [(Cohen et al., J. Pharm. and Exper. Therapeutics 227, 327-332 (1983); Cohen et al., J. Pharm. and Exper. Therapeutics 235, 319-323 (1985).]
Tissues were mounted in organ baths containing 10 ml of modified Krebs' solution of the following composition (millimolar concentrations): NaCl, 118.2; KCl, 4.6; CaCl2.2H2 O, 1.6; KH2 PO4, 1.2; MgSO4, 1.2; dextrose, 10.0; and NaHCO3, 24.8. Tissue bath solutions were maintained at 37° C. and aerated with 95% O2 -5% CO2. Isometric contractions were recorded as changes in grams of force on a Beckman Dynograph with Statham UC-3 transducers and microscale accessory attachments. Tissues were allowed to equilibrate at an initial optimum resting force for 1 to 2 hr before exposure to test compound.
After control contractile responses to serotonin were obtained in the jugular vein, vessels were incubated with appropriate concentrations of the test compound for 1 hr. Responses to serotonin were then repeated in the presence of test compound.
Apparent test compound dissociation constants (KB) were determined for each concentration of test compound according to the following equation: [formula] where (B) is the concentration of the test compound and dose ratio is the ED50 of the serotonin in the presence of the test compound divided by the control ED50. […] The data were also analyzed according to the procedure of Arunlakshana and Schild, Brit. J. Pharmacol. 14, 48-58 (1959) as previously described [Cohen et al., supra (1983)].

[6] abbreviates: 15 minutes after test compound, serotonin 0.1 mg/kg iv.
Where [7] appears, read: 120 minutes after test compound.

SMILES strings stand for the structures. pKd: −log10 of the molar value. Like-named read-outs stand apart in the source and are kept apart here.

T1 sequence (P14842 whole entry): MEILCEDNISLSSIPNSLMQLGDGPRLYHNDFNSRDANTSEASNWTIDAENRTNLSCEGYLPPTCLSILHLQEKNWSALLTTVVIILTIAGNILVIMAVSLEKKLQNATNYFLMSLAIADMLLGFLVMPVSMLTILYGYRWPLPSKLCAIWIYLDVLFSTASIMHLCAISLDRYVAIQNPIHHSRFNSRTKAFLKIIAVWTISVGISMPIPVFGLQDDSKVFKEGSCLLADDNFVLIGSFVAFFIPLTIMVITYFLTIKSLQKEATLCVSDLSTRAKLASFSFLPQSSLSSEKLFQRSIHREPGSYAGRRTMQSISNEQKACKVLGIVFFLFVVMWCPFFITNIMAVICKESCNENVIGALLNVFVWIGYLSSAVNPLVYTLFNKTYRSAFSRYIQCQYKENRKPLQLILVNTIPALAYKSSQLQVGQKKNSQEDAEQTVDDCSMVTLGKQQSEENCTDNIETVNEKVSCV

For `COC1CCC(OC(=O)C2C[C@@H]3c4cccc5c4c(cn5C(C)C)C[C@H]3N(C)C2)CC1` (some centres unmarked) [I, reference compound], the “inhibition of vascular serotonin receptors” value in test [1] (0.1 mg/kg i.v.) was “greater inhibition of vascular serotonin receptors than the acid”. Besides, the “Increase in mean blood pressure to serotonin” value (shortened to “Increase”) in test [1] (setting [6]) is given as 7.3 mm Hg; in test [1] (30 minutes after test compound), 12.7 mm Hg; in test [1] (60 minutes after test compound), 23.9 mm Hg; in test [1] (90 minutes after test compound) it was 34.6 mm Hg; in test [1] (setting [7]), 34.6 mm Hg. For the same compound, in test [2] (intravenous), the “effect on pressor response to serotonin” value is reported as “dose-dependently inhibited”.

In the case of `CC(C)n1cc2c3c(cccc31)C1C[C@@H](C(=O)O)CN(C)[C@@H]1C2` (some centres unmarked) [II, 1-isopropyldihydrolysergic acid], in test [1] (0.1 mg/kg i.v.), the “inhibition of vascular serotonin receptors” value is “marked block of vascular serotonin receptors”. In addition, the “inhibition of serotonin vascular response 2 hrs. after administration” value in test [1] (0.1 mg/kg i.v., 2 hrs. after intravenous administration) was “marked inhibition of serotonin vascular response was still apparent”. In addition, the “Increase” value is reported as 29.7 mm Hg in test [1] (setting [6]); 27.8 mm Hg in test [1] (30 minutes after test compound); 35.3 mm Hg in test [1] (60 minutes after test compound); 41.7 mm Hg in test [1] (90 minutes after test compound); 48.1 mm Hg in test [1] (setting [7]); 3.2 mm Hg in test [4] (15 minutes after test compound). The “Increase” value in test [4] (30 minutes after test compound) amounted to 3.4 mm Hg; in test [4] (60 minutes after test compound), 4.2 mm Hg; in test [4] (90 minutes after test compound) it was 9.6 mm Hg; in test [4] (setting [7]), 13.6 mm Hg. For the same compound, the “affinity in vitro for 5HT2 receptors (background statement)” value on 5HT2 receptors [3] is listed as “relatively low affinity”. Besides, the “potency as a 5HT2 antagonist in vivo” value in test [2] (in vivo) was “relatively high potency”. Further, in test [2] (intravenous), the “intravenous dose relative to the 4-methoxycyclohexyl ester to block vascular 5HT2 receptors” value is “three-fold higher”. Besides, the “potency relative to the ester in blocking vascular 5HT2 receptors” value in test [2] (intravenous administration) was “approximately one-third”. For the same compound, the “effect on pressor response to serotonin” value in test [2] (intravenous) was “dose-dependently inhibited”. Besides, the Kb was 151 nM on 5HT2 receptors [5] (Schild plot abscissa intercept, rat jugular vein, read-out: pA2 (converted)) and 85.1 nM on 5HT2 receptors [5] (rat jugular vein, serotonin contraction, apparent dissociation constant, n tissues in parentheses, read-out: -log KB ± SE(n) (converted)). Also, at 5HT2 receptors [5] (jugular vein, Schild slope not different from negative unity), the “type of antagonism at 5HT2 receptors” value is recorded as “competitive antagonist”. The same compound had a negative logarithm of the Kd (pKd) at 5HT2 receptors [5] (rat jugular vein) of approximately 7.00. In addition, on 5HT2 receptors [5] (rat jugular vein), the “affinity fold lower than the 4-methoxycyclohexyl ester” value is “approximately 100 fold”. In addition, the “ratio II/I (pA2)” value on 5HT2 receptors [5] (ratio from pA2 of II and I) amounted to 170. At 5HT2 receptors [5] (ratio of KB of II to I), the “ratio II/I (KB)” value is reported as 78. At 5HT2 receptors [5] (slope of Schild plot, rat jugular vein), the “-Slope” value came to 1.29.
